Test results published in US11555006B2, “Elucidation of novel 13-series resolvins that increase with atorvastatin and clear infections” (The Brigham and Women's Hospital, Inc., priority 2015, dated 2023).

Experiments:
human macrophages [1] = experiment: Human macrophage caspase 1, IL-1β and lactate dehydrogenase; format: cell-based
Procedure: Human macrophages (1.5×10^4 cells/well) were incubated with RvT1 (10 pM-10 nM), 1:1 mixture RvT2 and RvT3 (10 pM-10 nM), RvT4 (10 pM-10 nM) or vehicle (0.1% EtOH in DPBS, 15 min, 37° C.), then E. coli (7.5×10^5 cells/well, in DPBS, 16 h, 37° C.). Caspase 1 levels were assessed in macrophages by flow cytometry after cell fixing and permeabilization, staining with an anti-caspase 1 (Abcam; 4° C., 30 min) and anti-rabbit-Alexa 488 conjugated antibody (Molecular Probes; 4° C., 30 min). IL-1β levels were determined in cell-free supernatants using an anti-human IL-1β ELISA (eBiosciences) following manufacturer's instructions. Lactate dehydrogenase activity was measured in cell-free supernatants assessing the formation of NADH from NAD+ using a Lactate Dehydrogenase Assay kit (Sigma) following manufacturer's instructions.

human macrophages [2] = experiment: Human macrophage phagocytosis, ROS and efferocytosis; format: cell-based
Procedure: Macrophages were prepared from peripheral blood mononuclear cells (PBMC) purchased from Children's Hospital Blood Bank, Boston, and phagocytosis was assessed as in^31. Briefly, macrophages (5×10^4 cells/well) were incubated with RvT1 (1 pM-10 nM), 1:1 mixture RvT2 and RvT3 (1 pM-10 nM), RvT4 (1 pM-10 nM) or vehicle (0.1% EtOH in DPBS) for 15 min at 37° C., then fluorescent labeled apoptotic cells were added and cells incubated 45 min at 37° C. Extracellular fluorescence was quenched using Trypan blue (1:15 dilution) and phagocytosis assessed using an M3 SpectraMax plate reader (Molecular Devices). In select experiments, macrophages (prepared as detailed above, 5×10^4 cells/well) or neutrophils (1×10^5 cells/well), obtained from human healthy volunteers and isolated as in ^31 in accordance with Partners Human Research Committee Protocol (number 1999P001297), were incubated with H2DCFDA (5 μM, 30 min, 37° C.), excess dye was washed off and cells incubated with RvT1 (1 pM-10 nM), 1:1 mixture RvT2 and RvT3 (1 pM-10 nM), RvT4 (1 pM-10 nM) or vehicle (0.1% EtOH in DPBS, 15 min, 37° C.), then incubated with E. coli (1:50 leukocytes to E. coli, 45 min, 37° C.). Intracellular reactive oxygen species were determined by measuring fluorescence using an M3 SpectraMax plate reader. To assess bacterial phagocytosis, macrophages (5×10^4 cells/well) or neutrophils (1×10^5 cells/well) were incubated with RvT1 (1 pM-10 nM), 1:1 mixture RvT2 and RvT3 (1 pM-10 nM), RvT4 (1 pM-10 nM) or vehicle (0.1% EtOH in DPBS, 15 min, 37° C.), then incubated with BacLight Green (Molecular Probes) labeled E. coli (1:50 leukocytes to E. coli, 45 min, 37° C.). Extracellular fluorescence was then quenched using Trypan blue (1:15 dilution), and phagocytosis was assessed using an M3 SpectraMax plate reader.

human neutrophils = experiment: Human neutrophil phagocytosis and ROS; format: cell-based; conditions: 1 pM-1.0 nM, n=4 donors
Procedure: Macrophages were prepared from peripheral blood mononuclear cells (PBMC) purchased from Children's Hospital Blood Bank, Boston, and phagocytosis was assessed as in^31. Briefly, macrophages (5×10^4 cells/well) were incubated with RvT1 (1 pM-10 nM), 1:1 mixture RvT2 and RvT3 (1 pM-10 nM), RvT4 (1 pM-10 nM) or vehicle (0.1% EtOH in DPBS) for 15 min at 37° C., then fluorescent labeled apoptotic cells were added and cells incubated 45 min at 37° C. Extracellular fluorescence was quenched using Trypan blue (1:15 dilution) and phagocytosis assessed using an M3 SpectraMax plate reader (Molecular Devices). […] Intracellular reactive oxygen species were determined by measuring fluorescence using an M3 SpectraMax plate reader. […] Extracellular fluorescence was then quenched using Trypan blue (1:15 dilution), and phagocytosis was assessed using an M3 SpectraMax plate reader.

[3] = system: E. coli infections in mice; experiment: E. coli peritonitis in mice; format: in vivo; conditions: summary table of bioactions
Procedure: All animal experiments were conducted in accordance with the Harvard Medical Area Standing Committee on Animals (protocol no. 02570). Mice (male FvB, 6-8 weeks old, Charles River, fed lab diet containing essential fatty acids as from supplier) were anesthetized with isoflurane and microbial peritonitis initiated. Briefly, test compounds or vehicle were injected i.p. or i.v. 5 min prior to live E. coli (serotype 06:K2:H1; 1×10^5 or 1×10^7 CFU/mouse). At designated time intervals mice were harvested, blood was collected via cardiac puncture in heparin, and peritoneal exudates were collected in 4 ml of PBS. The cellular composition in the exudates was determined using Turks solution and light microscopy, and by flow cytometry. For flow cytometry, exudate cells were incubated with anti-mouse CD16/CD32 (eBiosciences, 20 min, 4° C., in PBS containing 5% fetal calf serum-staining solution), followed by incubation with FITC-conjugated anti-mouse Ly6G antibody (clone: 1A8, eBiosciences), PE-conjugated anti-mouse F4/80 antibody (clone:BM8, eBiosciences) and PerCP-Cy5.5-conjugated anti-mouse CD11b antibody (clone:M1/70, eBiosciences) for 30 min (4° C., in staining solution). To assess bacterial phagocytosis in peritoneal exudate leukocytes, exudate cells were incubated with PerCP-Cy5.5-conjugated anti-mouse CD11b antibody (30 min, 4° C., in staining solution), then fixed and permeabilized using BD Perm/Wash™ Buffer (BD Biosciences) following manufacturer's instructions and incubated with FITC-conjugated anti-E. coli antibody (GenTex, 30 min, 4° C., in BD Perm/Wash™ Buffer). Efferocytosis in infectious exudates was assessed by incubating exudate leukocytes with PE-conjugated anti-mouse F4/80 antibody (30 min, 4° C., in staining solution), then fixed and permeabilized using BD Perm/Wash™ Buffer (BD Biosciences) and incubated with FITC-conjugated anti-mouse Ly6G antibody (30 min, 4° C., in BD Perm/Wash™ Buffer). Body temperatures were assessed using an Infrared thermometer (Fluke). Bacterial counts in peripheral blood and inflammatory exudates were determined by overnight cultures (37° C.) of serially diluted samples on LB agar plates. Caspase 1 levels were assessed by incubation of exudate cells with PerCP-Cy5.5-conjugated anti-mouse CD11b antibody (30 min, 4° C., in staining solution), then fixed and permeabilized using BD Perm/Wash™ Buffer (BD Biosciences), incubated with anti-caspase 1 antibody (Abcam, 30 min, 4° C., in BD Perm/Wash™ Buffer) followed by anti-rabbit Alexa 488 conjugated antibody (Life Technologies, 30 min, 4° C., in BD Perm/Wash™ Buffer). IL-1β levels were determined in cell-free supernatants using an anti-mouse IL-1β ELISA (Abcam) following manufacturer's instructions. Lactate dehydrogenase activity was measured in cell-free supernatants assessing the formation of NADH from NAD+ using a Lactate Dehydrogenase Assay kit (Sigma) following manufacturer's instructions.
In select experiments resolution indices were calculated as in ^27. Ψmax, maximal PMN numbers in exudates; Tmax, time point when PMN numbers reach maximum; R50, 50% of maximal PMN numbers; T50, time point when PMN numbers reduce to 50% of maximum; Ri (resolution interval), T50-Tmax, time period when 50% PMN are lost from the exudates. To assess the proresolving actions of the test products, these were administered 12 h after E. coli (10^5 CFU) inoculation, and resolution indices were assessed.
For some experiments, mice were administered via i.p. injection RvT1, RvT2, RvT3 and RvT4 (that were isolated as detailed below and combined as a mixture at a ratio of 2:1:1:8 respectively) 2 h after E. coli inoculation. Blood and lungs were harvested 6 h after E. Coli inoculation. Blood was employed to determine peripheral blood eicosanoid levels as detailed below.

human recombinant COX-2 [4] = target: T1, human recombinant COX-2 (Homo sapiens, UniProt P35354); experiment: n-3 DPA conversion by S-nitrosylated hrCOX-2; format: biochemical; conditions: hrCOX-2 incubated with S-nitrosoglutathione
T1 construct: purchased Cayman Chemicals
T1 sequence (P35354 18-604): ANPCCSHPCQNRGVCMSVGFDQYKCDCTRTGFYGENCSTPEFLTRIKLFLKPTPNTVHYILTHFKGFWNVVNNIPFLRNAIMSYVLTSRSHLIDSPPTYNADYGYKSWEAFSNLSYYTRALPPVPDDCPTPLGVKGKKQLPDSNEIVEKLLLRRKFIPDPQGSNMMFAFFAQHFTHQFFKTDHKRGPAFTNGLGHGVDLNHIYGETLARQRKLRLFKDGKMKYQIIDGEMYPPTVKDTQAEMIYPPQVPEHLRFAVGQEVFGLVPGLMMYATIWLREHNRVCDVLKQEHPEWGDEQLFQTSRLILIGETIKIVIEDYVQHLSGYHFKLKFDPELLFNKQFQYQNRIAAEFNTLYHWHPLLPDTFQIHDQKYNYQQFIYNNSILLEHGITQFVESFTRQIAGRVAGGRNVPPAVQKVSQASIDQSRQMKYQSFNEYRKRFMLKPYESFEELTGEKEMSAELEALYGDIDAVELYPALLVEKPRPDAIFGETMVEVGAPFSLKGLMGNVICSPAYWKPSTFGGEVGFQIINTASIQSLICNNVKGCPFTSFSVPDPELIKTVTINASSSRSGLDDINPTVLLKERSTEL
Procedure: In designated experiments, n-3 DPA was incubated with hrCOX2, hrCOX-2 that was previously incubated with S-nitrosoglutathione (30 min RT), prepared by incubating 100 mM glutathione with 100 mM sodium nitrite in 200 mM hydrochloric acid at RT as in ^34 or S-nitrosoglutathione. After 20 min the incubations were quenched with methanol and 13-HDPA levels were assessed using LC-MS-MS-based LM metabololipidomics.

human recombinant COX-2 [5] = target: T1, human recombinant COX-2; experiment: Recombinant enzyme incubations, Michaelis Menten kinetics; format: biochemical; conditions: n-3 DPA converted to 13R-HDPA by human recombinant COX-2
Procedure: Human recombinant COX-2 (10 units; Cayman Chemicals; in 0.1 M Tris-HCl, pH 8.0, 20 μM porcine hematin, 0.67 mM phenol as in ^33) was incubated with the indicated concentrations of AA or n-3 DPA (1 h, RT) and absorbance at 235 nm was investigated at 1 min intervals using a Cary UV-Vis Spectrophotometer (Agilent).

[6] = system: human neutrophil-endothelial cell co-incubations; experiment: Lipid mediator levels in human endothelial cell incubations and neutrophil-endothelial cell co-incubations; format: cell-based; conditions: neutrophil-endothelial cells, 1 μM precursor
Procedure: Prior to sample extraction, deuterated internal standards (d4-PGE2, d5-LXA4, d4-RvD2, d4-LTB4 and d8-5S-HETE) representing regions of interest in the chromatographic analysis (500 pg each) were added to facilitate quantification. Extracted samples were analyzed by a LC-MS-MS system, Qtrap 6500 (AB Sciex) equipped with a Shimadzu SIL-20AC autoinjector and LC-20AD binary pump (Shimadzu Corp.). An Agilent Eclipse Plus C18 column (100×4.6 mm×1.8 μm) was used with a gradient of methanol/water/acetic acid of 55:45:0.01 (vol:vol:vol) that was ramped to 85:15:0.01 (vol:vol:vol) over 10 min and then to 98:2:0.01 (vol:vol:vol) for the next 8 min. This was subsequently maintained at 98:2:0.01 (vol:vol:vol) for 2 min. The flow rate was maintained at 0.4 ml/min. To monitor and quantify the levels of lipid mediators, a multiple reaction monitoring (MRM) method was developed with signature ion fragments (m/z) for each molecule monitoring the parent ion (Q1) and a characteristic daughter ion (Q3). […] Calibration curves were determined using a mixture of lipid mediators obtained via total organic synthesis, where these lipid mediators were not available (RvT1, RvT2, RvT3, RvT4 and 13-HDPA); known mediators with similar chromatographic properties (RvD2 for RvT1, RvD1 for RvT2 and RvT3; RvD5 for RvT4; 13-HDHA for 13-HDPA) were used. […]

[7] = summary table, macrophages and neutrophils

CCC(O)/C=C/C=C\C=C\C(O)C/C=C\C=C\C(O)CCCCCC(=O)O (stereo not drawn) [RvT1, 7,13,20-trihydroxy-docosapentaenoic acid]
IL-1β expression, human macrophages (human macrophages [1]; 10 pM-10 nM, E. coli 16 h): decreasing
caspase-1 expression, human macrophages (human macrophages [1]; 10 pM-10 nM, E. coli 16 h): decreasing
extracellular lactate dehydrogenase activity, human macrophages (human macrophages [1]; 10 pM-10 nM, E. coli 16 h): decreasing
In vitro: E. coli induced inflammasome components in human macrophages (human macrophages [1]; summary table of bioactions): Reduces E. coli induced
In vitro: E. coli induced macrophage pyroptosis (human macrophages [1]; summary table of bioactions): Reduces E. coli induced
E. coli phagocytosis in human macrophages (human macrophages [2]; 1 pM-10 nM): dose-dependently increased
efferocytosis of apoptotic neutrophils by human macrophages (human macrophages [2]; 1 pM-10 nM): dose-dependently increased
intracellular reactive oxygen species (ROS) in human macrophages (human macrophages [2]; 1 pM-10 nM): dose-dependently increased
In vitro: human macrophage efferocytosis of apoptotic neutrophils (human macrophages [2]; summary table of bioactions): Stimulates human
In vitro: human macrophage and neutrophil intra-phagolysosomal ROS production (human macrophages [2]; [7]): Stimulates human
In vitro: human macrophage and neutrophil phagocytosis of E. coli (human macrophages [2]; [7]): Stimulates human
increase in E. coli phagocytosis, human neutrophils (human neutrophils): 20-55%
increase in intracellular ROS, human neutrophils (human neutrophils): 20-40%
In vivo: circulating platelet-leukocyte aggregates [3]: Reduces circulating platelet-
In vivo: exudate pro-inflammatory eicosanoid levels during infections [3]: Reduces exudate pro-
In vivo: infection induced hypothermia [3]: Protects against infection
In vivo: macrophage efferocytosis of apoptotic neutrophils [3]: Stimulates macrophage
In vivo: murine leukocyte phagocytosis of E. coli [3]: Stimulates murine leukocyte
In vivo: neutrophil recruitment during infections [3]: Limits neutrophil recruitment
In vivo: protective actions of atorvastatin in infections [3]: Elaborates the protective
In vivo: pyroptosis [3]: Reduces pyroptosis

N[C@@H](CCC(=O)N[C@@H](CSN=O)C(=O)NCC(=O)O)C(=O)O [S-nitrosoglutathione]
13R-HDPA and hrCOX-2 catalytic activity compared to native COX-2 (human recombinant COX-2 [4]): increased

CC/C=C\C/C=C\C/C=C\C/C=C\C/C=C\CCCCCC(=O)O [n-3 DPA, n-3 docosapentaenoic acid]
Km (human recombinant COX-2 [5]): 3.1 ± 1.3 µM
increase in RvT amounts on co-incubation with precursor [6]: 30-50%
